{"source": "patent US12709738B2", "about": "“Compositions and methods for increasing the culture density of a cellular biomass within a cultivation infrastructure” (The Upside Group Inc., priority 2017, dated 2026)", "format_in_all_cases": "cell-based", "key": {"[1]": {"test_system": "Bovine myoblasts", "assay": "Cell count by bright field cell imaging after LPA, subconfluent and confluent cultures", "conditions": "96 well plate, LPA 0, 10 or 25 μM", "protocol": "Bovine myoblasts were isolated from a bovine skeletal muscle tissue using the protocol described above. Isolated myoblasts were plated at a culture density of 2000 (subconfluent) or 10,000 (confluent) cells per well in a 96 well plate in triplicate wells. The cells were allowed to adhere for 24 hours, at which time LPA was added at a concentration of 0, 10 or 25 μM in the medium. Cells were subsequently harvested and counted by bright field cell imaging (Cytation 5 live cell imaging, analyzed with Lionheart software). […] Data shown are mean+/−SD. Significance was determined by the Student's T test."}, "[2]": {"test_system": "Bovine myoblasts", "assay": "Proliferation rate by EdU incorporation (FACS) after LPA", "conditions": "10 μM LPA, 24 hours; compared to vehicle-treated cells; FIG. 5", "protocol": "In another experiment, bovine myoblasts were plated at a culture density of 10,000 cells per well in a 96 well plate in triplicate wells. The cells were allowed to adhere for 24 hours, when 10 μM LPA was added in the medium. Cells were subsequently harvested. After 24 hours, the proliferation rate was measured by EdU incorporation using a commercially available nucleoside pulse labeling kit such as the Click-iT-EdU kit (ThermoFisher). Briefly, cells were treated with 3 μM EdU, incubated at room temperature for 6 hours and detected according to the manufacturer's instructions, Cells were labeled with Alexa Fluor® 647 azide and analyzed using Fluorescence-Activated Cell Sorting (FACS) using 633 nm excitation and a 660/20 nm emission filter."}, "[3]": {"test_system": "Bovine myoblasts", "assay": "Differentiation to mature muscle cells by myogenin immunostaining", "conditions": "LPA 10 or 25 μM added daily in serum-free medium", "protocol": "Isolated bovine myoblasts were plated in a culture medium without adding serum at a culture density of 10,000 cells per well in a 96 well plate in triplicate wells. The cells were allowed to adhere for 24 hours, when LPA was added at a concentration of 0, 10 or 25 μM in serum-free medium. LPA was added daily until harvesting. Myogenin was used as a marker of differentiation to mature muscle cells. To determine the degree of differentiation to mature muscle cells, cultures were fixed in 4% paraformaldehyde for 10 min and then washed with PBS. Cells were incubated with PBS/0.2% BSA/0.1% Triton-X100 for 20 min followed by incubation with an anti-myogenin antibody (Abcam, mouse, 1/150) for 1 h at room temperature. After 3 washes with PBS/0.2% BSA, cells were incubated with secondary antibodies (goat anti-rabbit Alexa488, 1/800; goat anti-mouse Alexa555, 1/800, Invitrogen) for 30 min at room temperature. Nucleus was stained with DAPI."}}}
{"substance": "lysophosphatidic acid [LPA]", "values": [{"measurement": "increase of cells in the subconfluent culture", "setting": "[1]; 2000 cells per well, FIG. 4A", "value": 309, "unit": "%"}, {"measurement": "increase of cells in the confluent culture", "setting": "[1]; 10,000 cells per well, FIG. 4B", "value": 130, "unit": "%"}, {"measurement": "increase in percentage of cells in the S-phase", "setting": "[2]", "value": 216, "unit": "%"}, {"measurement": "expression of myogenin (marker of differentiation)", "setting": "[3]", "value": "reduced expression of myogenin"}]}
